Several values for one entry are separate records, joined by “and”; a condition that tells them apart may be missing. Equal entries are not always repeated. Entries after “also recorded” stand apart in the source; their conditions may differ. Where two headings read alike, the source gives them in different places. *1 amine or outer side, *2 acyl side, *3 side chain or, on linkers, in order; H or OH if unused. Where a SMILES comes first, the peptide text is derived from it. Bridges are numbered along the chain shown (N, C = ends). Roman numbers before positions name the chains, in order. Where no end group is shown, it is not given here. [ ]: non-standard residue; d: D form. The star is where a group is joined. Actinocin(9to1) = Cc1c2oc3c(C)ccc(C(=O)[*:1])c3nc-2c(C(=O)[*:2])c(N)c1=O; NMeV = CN[C@H](C(=O)O)C(C)C; Cbz = O=C(OCc1ccccc1)*; Sar = CNCC(=O)O
Tests used:
eEF2K = eEF2K (Homo sapiens, UniProt O00418); experiment: eEF2K activity in vitro; assay type: biochemical
[1] = test system: surface AMPA receptor (GluR2/3, GluR1) in cultured neurons; experiment: Surface biotinylation assay of AMPA receptor subunits; assay type: cell-based, mouse
Procedure: For surface biotinylation, drug-treated cortical neurons were cooled on ice, washed twice with ice-cold PBS++ (1× PBS, 1 mM CaCl2, 0.5 mM MgCl2) and then incubated with PBS++ containing 1 mg/ml Sulfo-NHS-SSBiotin (Pierce) for 30 min at 4° C. Unreacted biotin was quenched by washing cells three times with PBS++ containing 100 mM Glycine (pH 7.4) (briefly once and for 5 min twice). Cultures were harvested in RIPA buffer and sonicated. Homogenates were centrifuged at […] for 20 min at 4° C. Fifteen % of supernatant was saved as the total protein. […] Precipitates were washed with RIPA buffer three times (5 min each time). All procedures were done at 4° C.

[2] = test system: Arc protein in DIV14 forebrain neurons; experiment: Western blot of Arc protein in cultured forebrain neurons; assay type: cell-based, mouse; settings: for level of Arc protein, low dose cycloheximide: 10 min; for level of Arc protein after BDNF: BDNF 10 ng/ml
Procedure: For biochemistry experiments, 0.4×10^6 neurons were added to each well of a 6-well plate (Coming) coated with poly-L-lysine. Growth medium consisted of NeuroBasal (Invitrogen) supplemented with 1% fetal bovine serum (Hyclone), 2% B27, 1% Glutamax (Invitrogen), 100 U/mL penicillin, and 100 U/mL streptomycin (Invitrogen). Neurons were fed twice per week with glia conditioned growth medium.
Transfected HEK293T cells or cultured neurons were treated with various drugs and then harvested in IP buffer supplemented with 1% Triton X-100 buffer and Complete™ EDTA-Free protease inhibitors. Soluble fractions were diluted with 4× SDS sample buffer.
The membrane was blocked with TBST (50 mM Tris, pH 7.5, with 150 mM NaCl, and 0.1% Tween-20) containing 5% non-fat milk for one hour at room temperature, followed by incubation with primary antibody in TBST buffer overnight at 4° C. After three washes with TBST buffer, membranes were incubated with HRP-conjugated anti-rabbit, or anti-mouse antibody in TBST for another hour. After three washes with TBST buffer, the membrane was treated with SuperSignal ECL substrate (Pierce) according to the manufacturer's protocol.
To reduce the background signal in the co-IP assay, HRP-conjugated HA or HPR conjugated myc antibody (Santa Cruz) was used when overexpressed proteins were tagged with HA or myc. […] Image J software (NIH) was used for quantification.

[3] = test system: hippocampal Schaffer collateral-CA1 synapses; experiment: Field recording of fEPSP (mGluR-LTD) in acute hippocampal slices; assay type: cell-based, mouse; settings: for DHPG-LTD in the presence of high dose cycloheximide: cycloheximide 60 μM, t=105 min
Procedure: For recording, slices were placed in a submersion recording chamber and perfused with 30° C. ACSF at a rate of 2 ml/min.
fEPSPs were recorded with extracellular recording electrodes (1.0 MΩ) filled with ACSF and placed in the stratum radiatum of area CA1. Synaptic responses were evoked by a 200-μsec current pulse to Schaffer collateral axons with a concentric bipolar tungsten stimulating electrode. Stable baseline responses were collected every 30 sec by using a stimulation intensity (10-30 μA) yielding 50-60% of the maximal fEPSP slope response.
mGluR-LTD was induced by a mGluR1/5 agonist, (R,S)-3,5-DHPG (Tocris), or by electrical stimulations. […] NMDAR dependent-LTD was induced by using 900 single pulses delivered at 1 Hz.

[4] = test system: global protein synthesis in cultured neurons; experiment: Metabolic labeling, incorporation of 35S methionine and cysteine into TCA precipitant; assay type: cell-based; settings: 100 nM cycloheximide
Procedure: To measure the incorporation of ^35S methionine and cysteine into new peptide, 30 μl protein labeling mix (Perkin Elmer) was added into 1.5 ml of regular culture medium (final 220 μCi/ml) for the time indicated in the figures. After washout once with ice-cold PBS, cells were lysed with 700 μl of RIPA buffer. After quantification of total amount of protein, equal amount of lysate (˜200 μl) was precipitated with 10% TCA.

eEF2 kinase = biological target: T1, eEF2 kinase (Homo sapiens, UniProt O00418); experiment: Peptide substrate phosphorylation by eEF2 kinase; assay type: biochemical
T1 construct: made in house; host or cells: E. coli
Excerpt: While alpha-kinase phosphorylation sites are typically found within alpha-helicies of peptide substrates, it was unknown for eEF2K if alpha-kinases recognized target substrates based on a specific primary peptide sequence around the phosphorylation site of eEF2K, or whether the alpha-helical secondary structure is responsible for the phosphorylation by alpha-kinases. To clarify this an arrayed peptide library screen was used (Turk, Yale Med. Sch. Dept. Pharmacol.) that thoroughly evaluated for specific kinase preference all 20 amino acids at each of nine positions neighboring the phosphorylation site.
Every peptide comprising this library contained a central fixed phosphorylation site where equimolar quantities of threonine and serine were introduced; each peptide also contained a carboxy-terminal biotin label. […]
Reactions in this screen were run for a given incubation time and then spotted simultaneously on a streptavidin membrane through use of a high throughput capillary-based liquid transfer device. Submersion of the membrane in a specified quenching solution stripped away unincorporated ATP and then radiolabeled-ATP incorporation was measured using a phosphoimager. […]

[5] = test system: Arc protein in DIV14 hippocampal neurons; experiment: Arc immunocytochemistry in cultured hippocampal neurons; assay type: cell-based, mouse; settings: emetine 10 ng/ml, 10 min
Procedure: Immunocytochemistry of cultured neurons was performed as described (Shepherd et al., Neuron, 52, 475-484 (2006)). Briefly, DIV14 primary hippocampal neurons were fixed in fixation solution (4% paraformaldehyde, 4% sucrose containing 1× PBS) for 20 min at 4° C. and were permeabilized with 0.2% Triton X-100 in PBS for 10 min 4° C. Cells were then blocked for 1 hr at room temperature in 10% normal goat serum (NGS). Primary antibodies were diluted (1:250 of phospho-eEF2 antibody, 1:500 of PSD95, 1:300 for Arc) in 10% NGS and incubated with neurons for overnight at 4° C. Alexa 488, or Alexa 555-conjugated secondary antibodies (1:500; Molecular Probes) were diluted in 10% NGS and incubated at room temperature for 1 hr. Coverslips were mounted with PermaFluor containing DAPI (Invitrogen). All images were taken with same exposure and setting using Zeiss 510 Meta confocal microscope. Quantification of Arc levels was carried out using Image J software. For the measurement of dendritic Arc levels, average pixel intensity was measured in the primary dendrites 20 μm away from the soma.

[6] = test system: Arc mRNA in cultured neurons; experiment: Real-time RT-PCR of Arc mRNA; assay type: cell-based; settings: BDNF 10 ng/ml at 40 min; forskolin 50 μM at 20 min; DHPG at 20 and 40 min after stimulation
Procedure: RNA samples from neuronal cultures were prepared using the PARIS kit (Ambion) according to the manufacturer's protocol. Following RNA extraction, samples were treated with DNase to remove contaminating DNA prior to cDNA synthesis. Total RNA was reverse transcribed using the SuperScript II First Strand Synthesis System for RT-PCR (Invitrogen) according to the manufacturer's protocol. A negative control without reverse transcriptase was included.
Primer specificity was verified by melt curve analysis. PCR amplification of cDNA was performed using the BioRad iCycler Real-Time Detection System (BioRad Laboratories). cDNA (1 μl) was added to 24 μl of 1× reaction master mix (3 mM MgCl2, KCl, Tris-HCl, iTaq DNA polymerase, 25 units/ml SYBR Green 1, 0.2 mM each dNTPs, 10 nM fluorescein and 500 nM each gene specific primers). […]
GAPDH was used to normalize data. The threshold for detection of PCR product above background was set at 10× the standard deviation of the mean background fluorescence for all reactions. Background fluorescence was determined from cycles 1-5 prior to the exponential amplification of product and subtracted from the raw fluorescence of each reaction/cycle. […] Threshold cycle (CT; number of cycles to reach threshold of detection) was determined for each reaction.
Relative gene expression was determined using the 2^−ΔΔCT method (Livak, et al., Methods 25, 402-408 (2001)). […]

With `CCCCCCCCCCCCC/C=C/[C@@H](O)[C@@H](N)COP(=O)(O)O` [Sphingosine-1-phosphate, sphingosine-1-phosphate] the “inhibition of eEF2K activity in vitro” value (eEF2K) was “inhibit eEF2K activity” and the “inhibition of eEF2K activity in vitro” value (eEF2K; listed as sphingosine-1-phosphate) was “inhibitor of eEF2 kinase”.

In the case of `NC1=N[C@H](O)[C@H]2[C@H]3O[C@]4(O)O[C@@H]([C@@H](O)[C@@]2(N1)[C@@H]4O)[C@]3(O)CO` [TTX, tetrodotoxin], the “surface expression of GluR1” value [1] is reported as “increased the surface expression of GluR1”.

For `Cc1c2oc3c(C)ccc(C(=O)N[C@@H]4C(=O)N[C@H](C(C)C)C(=O)N5CCC[C@H]5C(=O)N(C)CC(=O)N(C)[C@@H](C(C)C)C(=O)O[C@@H]4C)c3nc-2c(C(=O)N[C@@H]2C(=O)N[C@H](C(C)C)C(=O)N3CCC[C@H]3C(=O)N(C)CC(=O)N(C)[C@@H](C(C)C)C(=O)O[C@@H]2C)c(N)c1=O` [Actinomycin D] (I: T[dV]P[Sar][NMeV] / II: T[dV]P[Sar][NMeV]; ester I:1-I:C, II:1-II:C; linker I:N-II:N via Actinocin(9to1)), the “effect on induction of Arc protein by DHPG (5 min)” value [2] was “did not alter; also recorded: did not block” and the “basal levels of Arc with transcription inhibitor” value ([2]; ActD 10 μM, 1 hr) was “decreased the basal levels of Arc”.

`C[C@@H]1C[C@@H]([C@H](O)CC2CC(=O)NC(=O)C2)C(=O)[C@@H](C)C1` [cycloheximide] was tested, and the “fEPSP slope, low dose cycloheximide + DHPG” value [3] was 75.7±7.4 % of baseline and 69.0±2.6 % of baseline, the “DHPG-LTD in the presence of high dose cycloheximide” value ([3]; Fmr1 KO slices) was 72.3±4.8 % of baseline and the “DHPG-LTD in the presence of high dose cycloheximide” value ([3]; WT (FVB) slices) was 95.5±2.9 % of baseline. For the same molecule, the “baseline synaptic transmission, low dose cycloheximide without mGluR stimulation” value ([3]; WT slices) was 101.2±2.0%, the “baseline synaptic transmission, low dose cycloheximide without mGluR stimulation” value ([3]; eEF2K KO slices) was 100.4±4.6% and the “effect on induction of Arc protein by DHPG (5 min)” value [2] was “blocked”. For the same molecule, the “induction of Arc, high dose cycloheximide” value ([2]; >1 uM, WT and eEF2K KO neurons) was “did not induce Arc”, the “level of Arc protein, low dose cycloheximide” value (from here on “level … low dose cycloheximide”) ([2]; WT neurons, low dose (50-100 nM)) was “increased Arc protein” and the “level … low dose cycloheximide” value ([2]; WT neurons, low dose (50-100 nM), listed as CHX) was “increased the level of Arc protein”. For the same molecule, the “level … low dose cycloheximide” value ([2]; eEF2K KO neurons, 50 nM and 100 nM) was “increased the level of Arc protein” and the “total incorporation of 35S labeled methionine and cysteine into TCA precipitant” value [4] was ~60%.

Ac-RKKYKFNEDTERRRFL [eEF2p] was tested, and the “efficiency as substrate compared with the MH-U peptide” value (eEF2 kinase) was “two orders of magnitude more efficient”.

With `CC[C@H]1CN2CCc3cc(OC)c(OC)cc3[C@@H]2C[C@@H]1C[C@H]1NCCc2cc(OC)c(OC)cc21` [emetine] the “effect on rapid DHPG-induced increase of Arc (immunocytochemistry)” value [5] was “blocked”.

With `CC(C)C[C@@H](C=O)NC(=O)[C@H](CC(C)C)NC(=O)[C@H](CC(C)C)NC(=O)OCc1ccccc1` [MG132] (Cbz-Leu-Leu-Leu-aldehyde) the “level of Arc protein with proteasome inhibitor” value ([2]; MG132 10 μM, 1 hr) was “increased the basal level of Arc protein; also recorded: increased the levels of Arc”.

B1: BDNF: BDNF, applied at 10 ng/ml to neurons (protein, UniProt P23560 19-247, looked up)
Neurotrophic factor BDNF …: APMKEANIRGQGGLAYPGVRTHGTLESVNGPKAGSRGLTSLADTFEHVIEELLDEDQKVRPNEENNKDADLYTSRVMLSSQVPLEPPLLFLLEEYKNYLDAANMSMRVRRHSDPARRGELSVCDSISEWVTAADKKTAVDMSGGTVTVLEKVPVSKGQLKQYFYETKCNPMGYTKEGCRGIDKRHWNSQCRTTQSYVRALTMDSKKRIGWRFIRIDTSCVCTLTIKRGR
In the case of B1, the “level of Arc protein after BDNF” value ([2]; 40 min after treatment) is reported as “increased Arc protein expression; also recorded: increased the level of Arc protein”, the “level of Arc protein after BDNF” value ([2]; after 5 min) is reported as “no change” and the “level of Arc mRNA” value [6] is reported as “induced the level of Arc mRNA”.
